Laboratory results from article PMC7384767 (Journal of natural products, 2020).

Tested on: M. tuberculosis H37Rv
Experiment: Microplate Alamar Blue assay
Assay type: cell-based
Settings: result in words

C=CC(C)(C)n1cc(C[C@@H]2NC(=O)[C@H](CC(C)C)N(C)C2=O)c2ccccc21 [Compound 9, rufomyazine] was tested, and the anti-TB activity was “did not show anti-TB activity”.
